In patent US20080269200A1, “Indole Derivatives and Use Thereof as Kinase Inhibitors in Particular Ikk2 Inhibitors” (SmithKline Beecham Corporation, priority 2004, published 2008):
pIC50: −log10 of the molar value.

Target: T1, Recombinant human IKK2 (residues 1-737) (Homo sapiens, UniProt O14920)
T1 construct: Recombinant human IKK2 (residues 1-737) was expressed in baculovirus as a C-terminal GST-tagged fusion protein; GST (C); made in house
T1 sequence (O14920 1-737): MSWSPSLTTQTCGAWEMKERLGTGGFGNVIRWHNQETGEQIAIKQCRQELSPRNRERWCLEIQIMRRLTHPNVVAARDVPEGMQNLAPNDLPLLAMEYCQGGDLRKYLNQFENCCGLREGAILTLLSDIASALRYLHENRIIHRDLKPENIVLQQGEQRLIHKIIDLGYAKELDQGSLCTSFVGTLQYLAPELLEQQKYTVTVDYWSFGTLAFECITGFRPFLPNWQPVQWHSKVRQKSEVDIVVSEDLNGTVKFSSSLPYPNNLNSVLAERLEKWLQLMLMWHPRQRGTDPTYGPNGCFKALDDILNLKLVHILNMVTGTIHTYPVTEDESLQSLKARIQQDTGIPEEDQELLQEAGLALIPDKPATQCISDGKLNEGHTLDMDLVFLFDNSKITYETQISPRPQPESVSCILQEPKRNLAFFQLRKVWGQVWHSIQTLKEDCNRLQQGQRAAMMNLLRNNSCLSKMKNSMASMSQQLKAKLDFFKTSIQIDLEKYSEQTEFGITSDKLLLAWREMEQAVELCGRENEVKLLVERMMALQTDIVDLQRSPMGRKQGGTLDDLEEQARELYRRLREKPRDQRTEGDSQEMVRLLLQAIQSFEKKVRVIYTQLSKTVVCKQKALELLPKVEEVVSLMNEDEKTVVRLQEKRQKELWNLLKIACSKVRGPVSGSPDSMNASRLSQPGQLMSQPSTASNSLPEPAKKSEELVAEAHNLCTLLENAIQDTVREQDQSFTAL
Assay: IKK2 Assay (TR-FRET)
Format: biochemical
Conditions: IKK2 5 nM, GST-IκBα substrate 25 nM, ATP 1 μM, 30 minutes at room temperature
Description: Recombinant human IKK2 (residues 1-737) was expressed in baculovirus as a C-terminal GST-tagged fusion protein, and its activity was assessed using a time-resolved fluorescence resonance energy transfer (TR-FRET) assay. Briefly, IKK2 (5 nM final) diluted in assay buffer (50 mM HEPES, 10 mM MgCl2, 1 mM CHAPS pH 7.4 with 1 mM DTT and 0.01% w/v BSA) was added to wells containing various concentrations of compound or DMSO vehicle (3% final). The reaction was initiated by the addition of GST-IκBα substrate (25 nM final)/ATP (1 μM final), in a total volume of 30 μl. The reaction was incubated for 30 minutes at room temperature, then terminated by the addition of 15 μl of 50 mM EDTA. Detection reagent (15 μl) in buffer (100 mM HEPES pH 7.4, 150 mM NaCl and 0.1% w/v BSA) containing antiphosphoserine-IκBα-32/36 monoclonal antibody 12C2 (Cell Signalling Technology, Beverly Mass., USA) labelled with W-1024 europium chelate (Wallac O Y, Turku, Finland), and an APC-labelled anti-GST antibody (Prozyme, San Leandro, Calif., USA) was added and the reaction was further incubated for 60 minutes at room temperature. The degree of phosphorylation of GST-IκBα was measured using a Packard Discovery plate reader (Perkin-Elmer Life Sciences, Pangboume, UK) as a ratio of specific 665 nm energy transfer signal to reference europium 620 nm signal.

NC(=O)c1cc(Br)cc2cc[nH]c12 [Intermediate 7, 5-bromo-1H-indole-7-carboxamide]
pIC50: > 4.80

NC(=O)c1cc(Br)cc2c(C3CCNCC3)c[nH]c12 [Intermediate 30, 5-bromo-3-(4-piperidinyl)-1H-indole-7-carboxamide]
pIC50: > 4.80

NC(=O)c1cc(-c2ccc(Cl)cc2)cc2cc[nH]c12 [Example 7, 5-(4-chlorophenyl)-1H-indole-7-carboxamide]
pIC50: > 4.80
